Here are results for 1 compound from patent US20230021647A1, “METHOD OF TREATING A PATIENT INFECTED WITH A CORONAVIRUS AND HAVING A BASELINE LEVEL OF CRP BELOW 150 MG/L” (Theravance Biopharma R&D IP, LLC, priority 2021, published 2023).

Molecules are shown by their SMILES.

The test system of data set [1] is acute lung injury associated with COVID-19. Nature of the data set: Phase 2 study Part 2, 3 mg vs placebo in hospitalized COVID-19 patients. The conditions noted are these: for time to recovery, median: placebo 11. The format is in vivo, human. The procedure: Eligible subjects were stratified by age (≤60 vs >60 years) and concurrent use of antiviral medications (e.g., remdesivir, lopinavir, chloroquine) at baseline. […] Approximately 20% of participants were enrolled with a baseline clinical status score of six (NIPPV or high flow oxygen device) based on the 8-point ordinal scale (Table 13).
The study drug was administered at 3 mg once-daily in a single dose with an additional 3 mg loading dose on day 1, for up to 7 days or until discharge from the hospital, whichever was earlier. Subjects were followed for up to 28 days or until death, whichever was earlier.
Matching placebo was administered once daily for up to 7 days, via inhalation using a vibrating mesh nebulizer.
In Part 2, the primary endpoint was the number of RFDs from randomization through Day 28. Secondary Endpoints were: change from baseline in SaO2/FiO2 ratio on Day 7, proportion of subjects in each category of the 8-point clinical status scale on Days 7, 14, 21 and 28, and proportion of subjects alive and respiratory failure-free on Day 28. […] Additional exploratory endpoints may include: change from baseline in SaO2/FiO2 ratio in mmHg on Day 7, number of VFDs from randomization to Day 28, proportion of subjects with a SaO2/FiO2 ratio >300 on Days 5 and 7, proportion of subjects in each category of the 6-point clinical status scale on Days 7, 14, 21 and 28, proportion of subjects in each category of vital status (death, discharge, hospitalized) on Days 7, 14, 21 and 28, proportion of subjects with an oxygen saturation >90% on room air, proportion of subjects with fever (>37° C. oral or equivalent), chest imaging (when done for clinical care reasons), biomarkers including: nasal SARS-CoV-2 viral load. The safety endpoints were: change from baseline in vital signs and clinical laboratory results, and incidence and severity of TEAEs. The PK endpoints were population PK parameters for compound 1.
The primary endpoint was the number of respiratory failure-free days (RFDs) from randomization through Day 28. A RFD was defined as a day that a subject is alive and not requiring the use of invasive mechanical ventilation, non-invasive positive pressure ventilation, high-flow oxygen devices, or oxygen supplementation from randomization through Day 28. A clinical status score of <4 (Table 13) was equivalent to a respiratory failure-free day. The number of RFDs was 0 for subjects who use respiratory support for 28 days or longer, or for subjects who died on or before Day 28.
Treatment comparisons were performed using a Van Elteren test (a stratified Wilcoxon rank sum test) adjusting for stratification factors. Treatment difference were summarized based on median of RFD between compound 1 and placebo. Additional prognostic baseline covariates (e.g., comorbidities) were included in the sensitivity analyses.
For SaO2/FiO2, treatment comparisons versus placebo were conducted using a mixed-model repeated measures (MMRM) model. The model included fixed effects for randomized treatment group, study day (Day 7, 14, 21 and 28), treatment group by study day interaction, baseline SaO2/FiO2 ratio, treatment group by baseline SaO2/FiO2 ratio interaction, and stratification factors (baseline age group ≤60 vs >60 years, and concurrent use of antiviral medication at baseline Yes vs. No). A random effect for subject was also included in the model. An unstructured covariance matrix was used to estimate covariance of within-patient scores. The Kenward-Roger approximation was used to estimate denominator degrees of freedom. From this model, least squares means, standard errors, treatment differences in LS means, and 95% confidence intervals (CIs) were estimated.

Data set [2] in a line: Phase 1 SAD/MAD study of inhaled compound 1 in healthy subjects. The format is in vivo, human. The procedure:
This was a phase 1, 2-part, double-blind, randomized, placebo controlled, sponsor-open, SAD (Part A) and MAD (Part B). Subjects participated in only 1 cohort in only 1 study part.
Part A (SAD) consisted of three (3) cohorts of 8 healthy subjects (6 active and 2 placebo). In each cohort, subjects received a single inhaled dose of compound 1 or placebo. […] Cardiodynamic monitoring via Holter monitors was conducted pre-dose and for at least 24 hours following dosing on Day 1 in each cohort, with rest periods for cardiodynamic electrocardiogram (ECG) extractions time matched to the PK sampling time points.
Part B (MAD) consisted of three (3) cohorts of 10 healthy subjects (8 active and 2 placebo). In each cohort, subjects received inhaled doses once daily (QD) for 7 days. […] Blood samples for PK assessment were also collected pre-dose on the morning of Days 3 through 6. Cardiodynamic monitoring via Holter monitors may be conducted pre-dose on Day 1 and pre-dose and for at least 24 hours following dosing on the morning of Day 7 in each cohort with rest periods for cardiodynamic ECG extractions time matched to the PK sampling time points.
In Parts A and B, safety data (i.e., physical examinations, vital signs, 12-lead safety ECGs, spirometry, clinical laboratory tests, and adverse events [AEs]) were assessed throughout the study; and blood and urine samples were collected for safety assessments. All subjects who received at least one dose of study drug (including subjects who terminated the study early) returned to the CRU 7 (±2) days after the last study drug administration for follow-up procedures, and to determine if any AEs have occurred since the last study visit.
In Part B, subjects received inhaled doses QD for 7 days using a nebulizer device.
Morning doses on Days 1 and 7 were administered under fasting conditions due to cardiodynamic monitoring. On all other times, doses were administered at least 30 minutes after completion of a meal or snack. Hour 0 was defined as the beginning of inhalation in each morning dose administration.

Where [3] appears, read: single and multiple inhaled doses.

For the compound `CCc1cc(O)ccc1-c1ccc2c(-c3nc4c([nH]3)CN(C(C)C)[C@H](C(=O)N3CC(N(C)C)C3)C4)n[nH]c2c1` [Compound 1, (S)-(3-(dimethylamino)azetidin-1-yl)(2-(6-(2-ethyl-4-hydroxyphenyl)-1H-indazol-3-yl)-5-isopropyl-4,5,6,7-tetrahydro-3H-imidazo[4,5-c]pyridin-6-yl)methanone], in data set [1] (Part 2), the plasma exposure result is listed as “low”. Besides, the tolerability entry in data set [1] (Part 2) was “well-tolerated”. The “serious infections, patients” value in data set [1] (Part 2, placebo 2.0%) was determined as 1.0%. Moreover, the “venous thromboembolism, patients” value in data set [1] (Part 2, placebo 4.9%) is reported as “none”. Further, the “adverse events of liver abnormalities or disease, patients” value in data set [1] (Part 2, placebo 7.8%) came to 9.7%. In data set [1] (Part 2, placebo 13 (12.7%)), the “patients discontinued from study, withdrawal for adverse event” value was 8 (7.8%) n (%). Further, the “serious adverse events, patients” value in data set [1] (Part 2, placebo 15.7%) was 9.7%. Also, the “adverse events, patients” value in data set [1] (Part 2, placebo 41.2%) is on record as 34.0%. Further, the “secondary endpoints vs placebo: change in SaO2/FiO2 at Day 7, 8-point Clinical Status, alive and respiratory failure-free at Day 28” value in data set [1] (Part 2 ITT) is “no difference”. Further, the “28-day all-cause mortality HR” value was found to be 0.42 in data set [1] (Part 2 ITT vs placebo, p=0.08) and 0.097 in data set [1] (Part 2 post-hoc, baseline CRP <150 mg/L vs placebo, p=0.009). Moreover, the “time to recovery HR” value in data set [1] (Part 2 ITT vs placebo, p=0.12) turned out to be 1.27; in data set [1] (Part 2 post-hoc, baseline CRP <150 mg/L vs placebo, p=0.02), 1.48. Besides, the “RFDs from randomization through Day 28, median” value in data set [1] (Part 2 ITT, 3 mg QD, placebo 21, p=0.61) was 21 days. Besides, the “time to recovery, median” value in data set [1] (Part 2 ITT) is reported as 10 days; in data set [1] (Part 2 post-hoc, baseline CRP <150 mg/L), 10 days. The “28-day all-cause mortality, total number of deaths” value is 6 in data set [1] (Part 2 ITT, placebo 13) and 1 in data set [1] (Part 2 post-hoc, baseline CRP <150 mg/L, placebo 9). For the same compound, in data set [1] (Part 2 post-hoc, baseline CRP >150 mg/L (n=30)), the “time to recovery or 28-day all-cause mortality vs placebo” value is given as “no difference”. In data set [2] (1 mg QD inhaled, Day 1), the AUC0-24 stood at 18.42 ng·h/mL. The highest concentration (Cmax) (usually the highest concentration seen after dosing) in data set [2] (1 mg QD inhaled, Day 7) stood at 5.699 ng/mL. Moreover, the Tmax result in data set [2] (setting [3]) is “approximately 1 hour”. In addition, the terminal elimination half-life result in data set [2] (setting [3]) is reported as “approximately 24 hours”. Also, the t1/2 in data set [2] (single inhaled dose 3 mg, mean (SD)) was 24.73 (2.802) hr.
